Laboratory results: publication PMC4979471 (Cell Death Discovery, 2015)
Where two headings read alike, the source gives them in different places.

Legend:
Experiment in all cases: Kinase selectivity, P33-radiolabeled assay
Assay type in all cases: biochemical
[1] = molecular target: T1, ERK2/MAPK1 (Homo sapiens, UniProt P28482); details: 10 μM ATP
T1 construct: purchased Reaction Biology Corp
Summary of the method: (§1)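 Values show % enzyme activity normalised to DMSO vehicle. They come from one 10 μM compound concentration run twice, at an ATP level of 10 μM.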

[2] = molecular target: T2, Aurora B (Homo sapiens, UniProt Q96GD4)
T2 construct: purchased Reaction Biology Corp
Summary of the method: as §1

[3] = molecular target: T3, ULK2 (Homo sapiens, UniProt Q8IYT8); details: 10 μM ATP
T3 construct: purchased Reaction Biology Corp
T3 sequence (Q8IYT8 1-1036): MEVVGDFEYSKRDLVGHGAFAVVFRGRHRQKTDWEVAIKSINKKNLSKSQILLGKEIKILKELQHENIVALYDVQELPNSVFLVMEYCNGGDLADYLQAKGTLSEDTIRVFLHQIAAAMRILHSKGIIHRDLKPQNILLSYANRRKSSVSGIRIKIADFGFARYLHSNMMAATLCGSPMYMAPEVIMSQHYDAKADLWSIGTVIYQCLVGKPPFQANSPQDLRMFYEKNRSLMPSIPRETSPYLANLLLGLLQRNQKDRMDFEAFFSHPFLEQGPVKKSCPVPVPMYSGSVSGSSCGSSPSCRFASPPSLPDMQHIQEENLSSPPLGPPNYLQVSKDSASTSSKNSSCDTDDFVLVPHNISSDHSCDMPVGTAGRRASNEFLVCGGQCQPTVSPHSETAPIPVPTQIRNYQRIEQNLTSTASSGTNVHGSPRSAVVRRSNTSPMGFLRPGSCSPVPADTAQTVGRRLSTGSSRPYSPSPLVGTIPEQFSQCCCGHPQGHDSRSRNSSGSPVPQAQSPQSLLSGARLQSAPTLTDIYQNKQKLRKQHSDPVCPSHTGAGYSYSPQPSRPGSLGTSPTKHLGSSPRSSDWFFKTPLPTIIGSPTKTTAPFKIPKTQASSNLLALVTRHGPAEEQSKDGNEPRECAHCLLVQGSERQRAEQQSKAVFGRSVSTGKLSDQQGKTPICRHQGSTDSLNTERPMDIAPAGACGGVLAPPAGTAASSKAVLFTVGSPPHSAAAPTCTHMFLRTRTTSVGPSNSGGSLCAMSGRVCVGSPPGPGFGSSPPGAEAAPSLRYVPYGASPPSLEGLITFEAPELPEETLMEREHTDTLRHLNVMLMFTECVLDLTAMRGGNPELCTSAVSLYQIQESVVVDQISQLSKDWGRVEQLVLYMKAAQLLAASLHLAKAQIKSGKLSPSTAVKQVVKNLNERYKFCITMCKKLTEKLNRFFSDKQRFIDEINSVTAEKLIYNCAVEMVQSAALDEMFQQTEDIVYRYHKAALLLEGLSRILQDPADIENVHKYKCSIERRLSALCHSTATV
Summary of the method: as §1

[4] = molecular target: T4, Haspin (Homo sapiens, UniProt Q8TF76); details: 10 μM ATP
T4 construct: purchased Reaction Biology Corp
T4 sequence (Q8TF76 1-798): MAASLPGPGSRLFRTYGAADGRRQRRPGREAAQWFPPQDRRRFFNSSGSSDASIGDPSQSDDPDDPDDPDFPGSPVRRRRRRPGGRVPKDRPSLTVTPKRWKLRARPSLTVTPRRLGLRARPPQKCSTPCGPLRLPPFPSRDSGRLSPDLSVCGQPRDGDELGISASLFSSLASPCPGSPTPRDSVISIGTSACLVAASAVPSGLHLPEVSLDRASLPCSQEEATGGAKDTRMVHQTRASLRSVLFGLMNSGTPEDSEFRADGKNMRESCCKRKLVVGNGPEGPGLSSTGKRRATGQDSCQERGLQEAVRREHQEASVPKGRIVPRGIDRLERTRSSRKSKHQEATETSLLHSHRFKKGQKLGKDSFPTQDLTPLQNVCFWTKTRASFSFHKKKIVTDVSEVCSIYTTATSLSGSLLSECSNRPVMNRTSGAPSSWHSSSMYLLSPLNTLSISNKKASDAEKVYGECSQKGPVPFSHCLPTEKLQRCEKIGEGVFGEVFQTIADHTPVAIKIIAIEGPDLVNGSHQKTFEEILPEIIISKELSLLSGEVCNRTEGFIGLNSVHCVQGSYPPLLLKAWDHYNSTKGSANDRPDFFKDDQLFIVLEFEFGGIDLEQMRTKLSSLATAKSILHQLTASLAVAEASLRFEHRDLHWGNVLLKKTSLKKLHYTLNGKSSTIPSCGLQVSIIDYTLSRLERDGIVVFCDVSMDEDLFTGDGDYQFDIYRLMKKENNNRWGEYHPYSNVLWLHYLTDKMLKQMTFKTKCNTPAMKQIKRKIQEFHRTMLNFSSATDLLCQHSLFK
Summary of the method: as §1

[5] = read-out: % Enzyme Activity (relative to DMSO controls) AVG
[6] = read-out: % Enzyme Activity (relative to DMSO controls) Data 1
[7] = read-out: % Enzyme Activity (relative to DMSO controls) Data 2

T2 sequence (Q96GD4 whole entry): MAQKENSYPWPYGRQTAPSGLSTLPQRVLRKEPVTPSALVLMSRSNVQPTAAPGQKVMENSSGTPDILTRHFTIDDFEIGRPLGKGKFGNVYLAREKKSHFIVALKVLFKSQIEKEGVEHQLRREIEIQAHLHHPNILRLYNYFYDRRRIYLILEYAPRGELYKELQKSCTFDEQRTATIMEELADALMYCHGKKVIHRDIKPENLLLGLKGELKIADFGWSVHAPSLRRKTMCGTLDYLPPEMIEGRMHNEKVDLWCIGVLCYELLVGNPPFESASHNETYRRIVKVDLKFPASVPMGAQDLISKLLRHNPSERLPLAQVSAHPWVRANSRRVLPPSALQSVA
T1 sequence (P28482 whole entry): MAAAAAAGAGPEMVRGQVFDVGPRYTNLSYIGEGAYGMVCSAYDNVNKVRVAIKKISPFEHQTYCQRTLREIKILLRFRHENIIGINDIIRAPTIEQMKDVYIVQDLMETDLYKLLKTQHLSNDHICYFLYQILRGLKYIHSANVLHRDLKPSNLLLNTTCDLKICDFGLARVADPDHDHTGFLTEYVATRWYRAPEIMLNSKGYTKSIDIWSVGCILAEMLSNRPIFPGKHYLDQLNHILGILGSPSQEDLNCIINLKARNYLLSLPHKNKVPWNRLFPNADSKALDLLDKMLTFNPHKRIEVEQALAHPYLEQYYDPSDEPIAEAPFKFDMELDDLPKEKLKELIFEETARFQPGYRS

Question: Which remaining activity at 10 µM [1, 5] does the source give for `CC(C)(C)C(=O)N1N=CC[C@H]1c1ccccc1` [GSK′963] here?
Answer: The remaining activity at 10 µM was 97.5%.

Question: And the remaining activity at 10 µM [1, 6]?
Answer: The remaining activity at 10 µM was 96.5%.

Question: What about the remaining activity at 10 µM [1, 7] of the same compound?
Answer: Its remaining activity at 10 µM is 98.5%.

Question: What about the remaining activity at 10 µM ([2]; 10 uM, 10 μM ATP, read-out: % Enzyme Activity (relative to DMSO controls) Data 1) of the same compound?
Answer: Its remaining activity at 10 µM is 104%.

Question: And the remaining activity at 10 µM ([2]; 10 uM, 10 μM ATP, read-out: % Enzyme Activity (relative to DMSO controls) Data 2)?
Answer: Its remaining activity at 10 µM is 98.7%.

Question: What about the remaining activity at 10 µM [2, 5] of the same compound?
Answer: Its remaining activity at 10 µM is 101%.

Question: What about the remaining activity at 10 µM [3, 5] of the same compound?
Answer: Its remaining activity at 10 µM is 99.7%.

Question: What about the remaining activity at 10 µM [3, 6] of the same compound?
Answer: Its remaining activity at 10 µM is 99.8%.

Question: And the remaining activity at 10 µM [3, 7]?
Answer: The remaining activity at 10 µM was 99.5%.

Question: What about the remaining activity at 10 µM [4, 5] of the same compound?
Answer: Its remaining activity at 10 µM is 96.7%.

Question: And the remaining activity at 10 µM [4, 6]?
Answer: The remaining activity at 10 µM was 97.3%.

Question: And the remaining activity at 10 µM [4, 7]?
Answer: Its remaining activity at 10 µM is 96.2%.
